From PubChem BioAssay (NCI)
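Interpolation was linear, between the two tested concentrations surrounding the appropriate level; five concentrations were tested over 48 hours in 96-well plates. GI50 = concentration required for 50% inhibition of growth. TGI denotes the concentration required for complete inhibition of growth.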

Assays:
Assay in all cases: inhibition of tumour cell growth, NCI panel, 48 h
786-0 renal = test system: 786-0 renal
A498 renal = test system: A498 renal
A549 NSCLC = test system: A549 NSCLC
ACHN renal = test system: ACHN renal
BT-549 breast = test system: BT-549 breast
CAKI-1 renal = test system: CAKI-1 renal
CCRF-CEM leukemia = test system: CCRF-CEM leukemia
COLO 205 colon = test system: COLO 205 colon
DU-145 prostate = test system: DU-145 prostate
EKVX NSCLC = test system: EKVX NSCLC
HCC-2998 colon = test system: HCC-2998 colon
HCT-116 colon = test system: HCT-116 colon
HCT-15 colon = test system: HCT-15 colon
HL-60(TB) leukemia = test system: HL-60(TB) leukemia
HOP-62 NSCLC = test system: HOP-62 NSCLC
HOP-92 NSCLC = test system: HOP-92 NSCLC
HS 578T breast = test system: HS 578T breast
HT29 colon = test system: HT29 colon
IGROV1 ovarian = test system: IGROV1 ovarian
K-562 leukemia = test system: K-562 leukemia
KM12 colon = test system: KM12 colon
LOX IMVI melanoma = test system: LOX IMVI melanoma
M14 melanoma = test system: M14 melanoma
MALME-3M melanoma = test system: MALME-3M melanoma
MCF7 breast = test system: MCF7 breast
MDA-MB-231 breast = test system: MDA-MB-231 breast
MDA-MB-435 = test system: MDA-MB-435
MDA-MB-468 breast = test system: MDA-MB-468 breast
MOLT-4 leukemia = test system: MOLT-4 leukemia

C[C@@H]1CN(c2ccc3ncc(C#Cc4cncc(C(=O)Nc5ccc(CN6CCN(C)CC6)c(C(F)(F)F)c5)c4)n3n2)C[C@@H](C)O1
GI50 (786-0 renal): 407 nM | TGI (786-0 renal): 986 nM | GI50 (A498 renal): 678 nM | TGI (A498 renal): 1370 nM | GI50 (A549 NSCLC): 340 nM | TGI (A549 NSCLC): 938 nM | GI50 (ACHN renal): 242 nM | TGI (ACHN renal): 680 nM | GI50 (BT-549 breast): 349 nM | TGI (BT-549 breast): 1200 nM | GI50 (CAKI-1 renal): 1370 nM | TGI (CAKI-1 renal): 3890 nM | GI50 (CCRF-CEM leukemia): 475 nM | TGI (CCRF-CEM leukemia): 1530 nM | GI50 (COLO 205 colon): 316 nM | TGI (COLO 205 colon): 719 nM | GI50 (DU-145 prostate): 332 nM | TGI (DU-145 prostate): 923 nM | GI50 (EKVX NSCLC): 227 nM | TGI (EKVX NSCLC): 654 nM | GI50 (HCC-2998 colon): 426 nM | TGI (HCC-2998 colon): 1010 nM | GI50 (HCT-116 colon): 270 nM | TGI (HCT-116 colon): 790 nM | GI50 (HCT-15 colon): 286 nM | TGI (HCT-15 colon): 632 nM | GI50 (HL-60(TB) leukemia): 421 nM | TGI (HL-60(TB) leukemia): 1170 nM | GI50 (HOP-62 NSCLC): 318 nM | TGI (HOP-62 NSCLC): 968 nM | GI50 (HOP-92 NSCLC): 124 nM | TGI (HOP-92 NSCLC): 496 nM | GI50 (HS 578T breast): 166 nM | TGI (HS 578T breast): 794 nM | GI50 (HT29 colon): 311 nM | TGI (HT29 colon): 979 nM | GI50 (IGROV1 ovarian): 276 nM | TGI (IGROV1 ovarian): 772 nM | GI50 (K-562 leukemia): 33.6 nM | TGI (K-562 leukemia): 2730 nM | GI50 (KM12 colon): 11.4 nM | TGI (KM12 colon): 534 nM | GI50 (LOX IMVI melanoma): 222 nM | TGI (LOX IMVI melanoma): 468 nM | GI50 (M14 melanoma): 280 nM | TGI (M14 melanoma): 771 nM | GI50 (MALME-3M melanoma): 276 nM | TGI (MALME-3M melanoma): 826 nM | GI50 (MCF7 breast): 229 nM | TGI (MCF7 breast): 679 nM | GI50 (MDA-MB-231 breast): 59.5 nM | TGI (MDA-MB-231 breast): 207 nM | GI50 (MDA-MB-435): 281 nM | TGI (MDA-MB-435): 833 nM | GI50 (MDA-MB-468 breast): 216 nM | TGI (MDA-MB-468 breast): 452 nM | GI50 (MOLT-4 leukemia): 297 nM | TGI (MOLT-4 leukemia): 4090 nM
